Where two headings read alike, the source gives them in different places.
How the values were obtained:
IGROV-1 = assay: Inhibition of cells growth by colorimetric assay (SRB), IGROV-1; assay type: cell-based; details: SRB, 48 hours exposure
Method in brief: (§1)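 Using sulforhodamine B, cell growth and viability are quantified after a 48 h drug exposure of cells maintained in RPMI 1640/10% FBS at 37 °C, 5% CO2. Concentrations span 10 to 10^−8 μg/ml; optical density is read at 490 nm.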

SK-OV-3 = assay: Inhibition of cells growth by colorimetric assay (SRB), SK-OV-3; assay type: cell-based; details: SRB, 48 hours exposure
Method in brief: as §1

LoVo-Dox = assay: Inhibition of cells growth by colorimetric assay (SRB), LoVo-Dox; assay type: cell-based; details: SRB, 48 hours exposure
Method in brief: as §1

A-549 = assay: Inhibition of cells growth by colorimetric assay (SRB), A-549; assay type: cell-based; details: for GI50 / LC50 (concentration for 50% cell killing): Homo sapiens, A549, 48 h; for GI50: read-out: A-549 GI50
Method in brief: as §1

HMEC1 = assay: Inhibition of cells growth by colorimetric assay (SRB), HMEC1; assay type: cell-based; details: SRB, 48 hours exposure
Experimental: (§2) 2°.—Inhibition of Cells Growth by Colorimetric Assay.
(§3) A colorimetric type of assay, using sulforhodamine B (SRB) reaction has been adapted for a quantitative measurement of cell growth and viability [following the technique described by Philip Skehan, et al. (1990), New colorimetric cytotoxicity assay for anticancer drug screening, J. Natl. Cancer Inst., 82:1107-1112]
(§4) This form of the assay employs 96 well cell culture microplates of 9 mm diameter (Faircloth, 1988; Mosmann, 1983). Most of the cell lines are obtained from American Type Culture Collection (ATCC) derived from different human cancer types.
(§5) Cells are maintained in RPMI 1640 10% FBS, supplemented with 0.1 g/l penicillin and 0.1 g/l streptomycin sulfate and then incubated at 37° C., 5% CO2 and 98% humidity. For the experiments, cells were harvested from subconfluent cultures using trypsin and resuspended in fresh medium before plating.
(§6) Cells are seeded in 96 well microtiter plates, at 5×10^3 cells per well in aliquots of 195 μl medium, and they are allowed to attach to the plate surface by growing in drug free medium for 18 hours. Afterward, samples are added in aliquots of 5 μl in a ranging from 10 to 10^−8 μg/ml, dissolved in DMSO/EtOH/PBS (0.5:0.5:99). After 48 hours exposure, the antitumor effect are measured by the SRB methodology: cells are fixed by adding 50 μl of cold 50% (wt/vol) trichloroacetic acid (TCA) and incubating for 60 minutes at 4° C. Plates are washed with deionized water and dried. One hundred μl of SRB solution (0.4% wt/vol in 1% acetic acid) is added to each microtiter well and incubated for 10 minutes at room temperature. Unbound SRB is removed by washing with 1% acetic acid. Plates are air dried and bound stain is solubilized with Tris buffer. Optical densities are read on a automated spectrophotometric plate reader at a single wavelength of 490 nm.
(§7) The values for mean+/−SD of data from triplicate wells are calculated. Some parameters for cellular responses can be calculated: GI=growth inhibition, TGI=total growth inhibition (cytostatic effect) and LC=cell killing (cytotoxic effect).
(§8) Obtained results may predict the usefulness of a certain drug as a potential cancer treatment. For this technique, compounds which show GI50 values smaller than 10 μg/ml are selected to continue with further studies. GI50's data allow to predict that not only could a drug be cystostatic, but also it could have a potential in terms of tumor reduction.

SK-MEL-28 = assay: Inhibition of cells growth by colorimetric assay (SRB), SK-MEL-28; assay type: cell-based; details: 48 hours exposure; for GI50: read-out: MEL-28 GI50
Method in brief: as §1

K-562 = assay: Inhibition of cells growth by colorimetric assay (SRB), K-562; assay type: cell-based; details: SRB, 48 hours exposure
Method in brief: as §1

DU-145 = assay: Inhibition of cells growth by colorimetric assay (SRB), DU-145; assay type: cell-based; details: SRB, 48 hours exposure
Method in brief: as §1

LNCaP = assay: Inhibition of cells growth by colorimetric assay (SRB), LNCaP; assay type: cell-based; details: SRB, 48 hours exposure
Experimental: as §2, §3, §4, §5, §6, §7, §8

HT-29 = assay: Inhibition of cells growth by colorimetric assay (SRB), HT-29; assay type: cell-based; details: for GI50 / LC50 (concentration for 50% cell killing): Homo sapiens, HT-29, 48 h; for GI50: read-out: HT-29 GI50
Method in brief: as §1

LoVo = assay: Inhibition of cells growth by colorimetric assay (SRB), LoVo; assay type: cell-based; details: SRB, 48 hours exposure
Method in brief: as §1

PANC-1 = assay: Inhibition of cells growth by colorimetric assay (SRB), PANC-1; assay type: cell-based; details: SRB, 48 hours exposure
Method in brief: as §1

SK-BR-3 = assay: Inhibition of cells growth by colorimetric assay (SRB), SK-BR-3; assay type: cell-based; details: SRB, 48 hours exposure
Experimental: as §2, §3, §4, §5, §6, §7, §8

IGROV-ET = assay: Inhibition of cells growth by colorimetric assay (SRB), IGROV-ET; assay type: cell-based; details: SRB, 48 hours exposure
Method in brief: as §1

From the text for Kidney: (§9) Toxicity was asssessed by the methods reported in Toxicology in Vitro, 15 (2001) 571-577, J. Luber Narod et al.: “Evaluation of the use of in vitro methodolodies as tools for screening new compounds for potential in vivo toxicity”.
From the text for Liver: as §9
From the text for Skeletal: as §9

Question: Which GI50 (IGROV-1; Homo sapiens, IGROV-1, 48 h, IGROV, read-out: IGROV GI50) does the source give for `C=COC(=O)N1CCc2cc(O)c(OC)cc2[C@@]12CS[C@@H]1c3c(OC(C)=O)c(C)c4c(c3[C@H](COC2=O)N2C1[C@H]1c3c(cc(C)c(OC)c3O)C[C@@H]([C@@H]2O)N1C)OCO4` (stereo partly shown) [Compound 95] here?
Answer: 0.028 µM

Question: What about the CC50 (IGROV-1; Homo sapiens, IGROV-1, 48 h, read-out: IGROV LC50, IGROV) of the same compound?
Answer: 1.09 µM

Question: And the “IGROV TGI” value (IGROV-1; IGROV)?
Answer: 6.67E-08

Question: And the GI50 (SK-OV-3; Homo sapiens, SK-OV-3, 48 h, SK-OV3, read-out: SK-OV3 GI50)?
Answer: 0.0281 µM

Question: What about the LC50 (SK-OV-3; Homo sapiens, SK-OV-3, 48 h, read-out: SK-OV3 LC50, SK-OV3) of the same compound?
Answer: 0.368 µM

Question: What about the “SK-OV3 TGI” value (SK-OV-3; SK-OV3) of the same compound?
Answer: 6.59E-08

Question: What about the GI50 (LoVo-Dox; Homo sapiens, 48 h, LOVO-DOX, read-out: LOVO-DOX GI50) of the same compound?
Answer: 0.24 µM

Question: And the CC50 (LoVo-Dox; Homo sapiens, 48 h, read-out: LOVO-DOX LC50, LOVO-DOX)?
Answer: 12 µM

Question: What about the “LOVO-DOX TGI” value (LoVo-Dox; LOVO-DOX) of the same compound?
Answer: 8.68E-07

Question: And the “A-549 TGI” value (A-549; A-549, SRB, 48 hours exposure)?
Answer: 5.55E-08

Question: What about the GI50 (A-549; A-549, SRB, 48 hours exposure) of the same compound?
Answer: 0.0268 µM

Question: And the LC50 (concentration for 50% cell killing) (A-549; read-out: A-549 LC50, A-549, SRB, 48 hours exposure)?
Answer: 0.147 µM

Question: And the “HMEC-1 TGI” value (HMEC1; HMEC-1)?
Answer: 2.80E-08

Question: And the GI50 (HMEC1; Homo sapiens, HMEC-1, 48 h, HMEC-1, read-out: HMEC-1 GI50)?
Answer: 0.00936 µM

Question: What about the LC50 (HMEC1; Homo sapiens, HMEC-1, 48 h, read-out: HMEC-1 LC50, HMEC-1) of the same compound?
Answer: 0.0756 µM

Question: What about the GI50 (SK-MEL-28; Homo sapiens, SK-MEL-28, 48 h, MEL-28, SRB) of the same compound?
Answer: 0.0252 µM

Question: And the CC50 (SK-MEL-28; Homo sapiens, SK-MEL-28, 48 h, read-out: MEL-28 LC50, MEL-28, SRB)?
Answer: 0.0832 µM

Question: What about the “MEL-28 TGI” value (SK-MEL-28; MEL-28, SRB) of the same compound?
Answer: 4.58E-08

Question: And the GI50 (K-562; Homo sapiens, K562, 48 h, K-562, read-out: K-562 GI50)?
Answer: 0.0153 µM

Question: And the LC50 (50% cell killing) (K-562; Homo sapiens, K562, 48 h, read-out: K-562 LC50, K-562)?
Answer: 2.22 µM

Question: And the “K-562 TGI” value (K-562; K-562)?
Answer: 5.30E-08

Question: What about the “DU-145 TGI” value (DU-145; DU-145) of the same compound?
Answer: 8.92E-08

Question: And the GI50 (DU-145; Homo sapiens, DU-145, 48 h, DU-145, read-out: DU-145 GI50)?
Answer: 0.0376 µM

Question: What about the CC50 (DU-145; Homo sapiens, DU-145, 48 h, read-out: DU-145 LC50, DU-145) of the same compound?
Answer: 1.01 µM

Question: What about the GI50 (LNCaP; Homo sapiens, LNCaP, 48 h, read-out: LNCAP GI50, LNCAP) of the same compound?
Answer: 0.0177 µM

Question: What about the CC50 (LNCaP; Homo sapiens, LNCaP, 48 h, read-out: LNCAP LC50, LNCAP) of the same compound?
Answer: 0.066 µM

Question: What about the “LNCAP TGI” value (LNCaP; LNCAP) of the same compound?
Answer: 3.41E-08

Question: And the “HT-29 TGI” value (HT-29; HT-29, SRB, 48 hours exposure)?
Answer: 1.27E-07

Question: What about the GI50 (HT-29; HT-29, SRB, 48 hours exposure) of the same compound?
Answer: 0.0404 µM

Question: And the LC50 (concentration for 50% cell killing) (HT-29; read-out: HT-29 LC50, HT-29, SRB, 48 hours exposure)?
Answer: 12 µM

Question: What about the GI50 (LoVo; Homo sapiens, LoVo, 48 h, LOVO, read-out: LOVO GI50) of the same compound?
Answer: 0.0262 µM

Question: And the LC50 (concentration for 50% cell killing) (LoVo; Homo sapiens, LoVo, 48 h, read-out: LOVO LC50, LOVO)?
Answer: 0.111 µM

Question: And the “LOVO TGI” value (LoVo; LOVO)?
Answer: 5.40E-08

Question: And the GI50 (PANC-1; Homo sapiens, PANC-1, 48 h, PANC-1, read-out: PANC-1 GI50)?
Answer: 0.0388 µM

Question: What about the LC50 (concentration for 50% net cell kill) (PANC-1; Homo sapiens, PANC-1, 48 h, read-out: PANC-1 LC50, PANC-1) of the same compound?
Answer: 1.09 µM

Question: What about the “PANC-1 TGI” value (PANC-1; PANC-1) of the same compound?
Answer: 1.08E-07

Question: What about the GI50 (SK-BR-3; Homo sapiens, SK-BR-3, 48 h, SK-BR3, read-out: SK-BR3 GI50) of the same compound?
Answer: 0.0298 µM

Question: What about the CC50 (SK-BR-3; Homo sapiens, SK-BR-3, 48 h, read-out: SK-BR3 LC50, SK-BR3) of the same compound?
Answer: 0.522 µM

Question: What about the “SK-BR3 TGI” value (SK-BR-3; SK-BR3) of the same compound?
Answer: 7.62E-08

Question: What about the GI50 (IGROV-ET; Homo sapiens, 48 h, IGROV-ET, read-out: IGROV-ET GI50) of the same compound?
Answer: 0.0505 µM

Question: And the CC50 (IGROV-ET; Homo sapiens, 48 h, read-out: IGROV-ET LC50, IGROV-ET)?
Answer: 12 µM

Question: What about the “IGROV-ET TGI” value (IGROV-ET; IGROV-ET) of the same compound?
Answer: 1.16E-07

Question: Which “Toxicity Data Kidney” value (Kidney) does the source give for `COc1cc2c(cc1O)CCN(C)[C@]21CS[C@@H]2c3c(OC(C)=O)c(C)c4c(c3[C@H](COC1=O)N1C2[C@@H]2N[C@@H](Cc3cc(C)c(OC)c(O)c32)[C@@H]1O)OCO4` (stereo partly shown) [Compound 217] here?
Answer: 2.66E-13

Question: And the GI50 (A-549; SRB assay, 48 hours exposure)?
Answer: 0.0021 µM

Question: What about the LC50 (concentration for 50% cell killing) (A-549; read-out: A-549 LC50, SRB assay, 48 hours exposure) of the same compound?
Answer: 0.0457 µM

Question: And the “A-549 TGI” value (A-549; SRB assay, 48 hours exposure)?
Answer: 6.16E-09

Question: What about the GI50 (SK-MEL-28; Homo sapiens, SK-MEL-28, 48 h, SRB assay) of the same compound?
Answer: 0.000537 µM

Question: What about the GI50 (HT-29; SRB assay, 48 hours exposure) of the same compound?
Answer: 0.0131 µM

Question: And the LC50 (concentration for 50% cell killing) (HT-29; read-out: HT-29 LC50, SRB assay, 48 hours exposure)?
Answer: 13.1 µM

Question: And the “HT-29 TGI” value (HT-29; SRB assay, 48 hours exposure)?
Answer: 1.31E-05

Question: What about the “Toxicity Data Skeletal” value (Skeletal) of the same compound?
Answer: 3.37E-12

Question: And the “Toxicity Data Liver” value (Liver)?
Answer: 1.07E-09

— patent US7759345B2, “Antitumoral derivatives of ET-743” (priority 2001, dated 2010)
